Key:
MSUT2 [1] = biological target: T1, MSUT2 (Homo sapiens (Human), UniProt Q6PJT7); assay: primary tau-inclusion neuronal assay (MSUT2 inhibitor activity); type: cell-based; settings: for IC50: dose-dependent activity, primary tau-inclusion neuronal assay; for biological activity in the in vitro assay (SAR summary in words): preliminary SAR summary
Protocol: A variety of analogs in which the tricycle scaffold was modified were prepared and evaluated for their MSUT2 inhibitor activity.
The N-substitution pattern was also explored. The dose-dependent activity of these compounds was determined using a primary tau-inclusion neuronal assay and is summarized in Table 3 below.

MSUT2 [2] = biological target: T1, MSUT2; assay: NMR Saturation Transfer Difference studies; type: binding; settings: 15 μM MSUT2 protein; down-field shift of ligand signals at 4.10 and 3.05 ppm; Kd could not be calculated
Protocol: The concentration of MSUT2 protein is 15 μM. Ratio of ligand to protein is indicated to the left of individual spectra.

MSUT2 [3] = biological target: T1, MSUT2; assay: photo-affinity labelling experiments (PAL probe BL-1138, TAMRA fluorescence SDS-PAGE); type: binding; settings: for ligand-protein binding mode (decrease in tagging density with competitor): used as competitor against PAL probe BL-1138, full MSUT2 and GST-MSUT2 construct
From the text: FIG. 7A and FIG. 7B show representative data from photo-affinity labelling experiments performed using UWK-5 (lanes 1-4) and BL-1122 (lanes 5-8) as competitors. Gel visualized by fluorescence imaging using TAMRA (excitation/emission maxima 546/579 nm).

[4] = biological target: MSUT2/poly(A)RNA binding interaction (Homo sapiens (Human), UniProt Q6PJT7); assay: high-throughput AlphaScreen, dose-response in vitro; type: biochemical; settings: AlphaScreen dose-response profile in vitro
From the text: MSUT2 has been identified as a therapeutic target for the treatment of tauopathy, and MSUT2 KO has decreased the accumulation of pathological tau and reduced the formation of NFTs in tau-transgenic PS19 mice models. Screening of >100,000 compounds in an AlphaScreen and an orthogonal FP-HTS assay identified a promising thiochromenathiazole-based inhibitor of the MSUT2/poly(A)RNA binding interaction. Preliminary SAR experiments have been conducted to confirm biological activity and to identify novel biologically active compounds of interest. […] Due to challenges in functionalizing an electron-deficient tricycle scaffold, the synthesis of analogues will coincide with an effort towards the optimization of synthetic conditions.

T1 sequence (Q6PJT7 whole entry, species assumed): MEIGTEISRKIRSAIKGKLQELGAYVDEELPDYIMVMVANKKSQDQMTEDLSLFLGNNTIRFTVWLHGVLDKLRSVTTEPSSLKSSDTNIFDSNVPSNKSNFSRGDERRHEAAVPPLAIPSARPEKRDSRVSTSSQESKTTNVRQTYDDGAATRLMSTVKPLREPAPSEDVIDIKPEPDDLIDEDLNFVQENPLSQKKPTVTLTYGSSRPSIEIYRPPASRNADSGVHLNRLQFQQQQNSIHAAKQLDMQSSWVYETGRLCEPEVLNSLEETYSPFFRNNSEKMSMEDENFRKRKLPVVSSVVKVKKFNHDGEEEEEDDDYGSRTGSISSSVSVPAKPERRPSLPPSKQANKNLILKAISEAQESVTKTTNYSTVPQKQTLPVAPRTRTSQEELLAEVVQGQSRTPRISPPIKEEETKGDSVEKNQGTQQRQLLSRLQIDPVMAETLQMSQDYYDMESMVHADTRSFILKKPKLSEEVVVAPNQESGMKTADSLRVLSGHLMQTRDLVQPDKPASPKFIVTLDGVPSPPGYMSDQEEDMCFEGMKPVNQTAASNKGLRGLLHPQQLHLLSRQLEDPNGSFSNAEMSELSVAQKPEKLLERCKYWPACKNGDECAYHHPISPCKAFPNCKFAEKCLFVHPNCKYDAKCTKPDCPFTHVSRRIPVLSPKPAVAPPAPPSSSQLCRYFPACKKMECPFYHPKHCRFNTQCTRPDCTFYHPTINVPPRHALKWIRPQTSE
Chain of MSUT2/poly(A)RNA binding interaction (Q6PJT7 whole entry, species assumed): as above

| Compound | IC50 (MSUT2 [1]) | biological activity in the in vitro assay (SAR summary in words) (MSUT2 [1]) | other results |
| --- | --- | --- | --- |
| Nc1nc2c(s1)CSc1ccccc1-2 [BL-0957] | 8.17 µM |  |  |
| Nc1nc2c(s1)COc1ccccc1-2 [BL-0959] | 3.91 µM | tolerated |  |
| Nc1nc2c(s1)CCc1ccccc1-2 [BL-0960] | > 100 µM | loss of biological activity |  |
| Nc1nc2c(s1)CCCc1ccccc1-2 [BL-0961] | > 100 µM | loss of biological activity |  |
| CCS(=O)(=O)c1ccc(C(=O)Nc2nc3c(s2)COc2ccccc2-3)cc1 [BL-0962] | > 100 µM |  |  |
| Nc1nc2c(s1)CSc1c(F)cccc1-2 [BL-0979] | 23.6 µM |  |  |
| Nc1nc2c(s1)CSc1cc(F)ccc1-2 [BL-0981] | 22.3 µM |  |  |
| Nc1nc2c(s1)CSCC2 [BL-1018] | > 128 µM | eliminates activity |  |
| O=S(=O)(Nc1nc2c(s1)CSc1ccccc1-2)c1ccccc1 [BL-1027] | 24.7 µM |  |  |
| Fc1ccc(CNc2nc3c(s2)COc2ccccc2-3)cc1 [BL-1038] | 20.8 µM |  |  |
| O=S(=O)(Nc1nc2c(s1)COc1ccccc1-2)c1ccccc1 [BL-1039] | 34.2 µM |  |  |
| CCN(CC)c1ccc(CNc2nc3c(s2)CSc2ccccc2-3)cc1 [BL-1041] | 5.67 µM |  |  |
| CC(C)Cc1ccc(CNc2nc3c(s2)CSc2ccccc2-3)cc1 [BL-1043] | 20.2 µM |  |  |
| CC(C)(C)OC(=O)NCC(=O)Nc1nc2c(s1)CSc1ccccc1-2 [BL-1045] | 45.1 µM |  |  |
| Fc1ccc(CNc2nc3c(s2)CCc2ccccc2-3)cc1 [BL-1051] | 21.8 µM |  |  |
| Nc1nc(-c2ccccc2)cs1 [BL-1055] | > 128 µM | eliminates activity |  |
| CCS(=O)(=O)c1ccc(C(=O)Nc2nc(-c3ccccc3)cs2)cc1 [BL-1057] | > 128 µM | eliminates activity |  |
| Nc1nc2c(s1)CS(=O)(=O)c1ccccc1-2 [BL-1075] | > 128 µM | complete loss of biological activity |  |
| C#CCNC(=O)Nc1nc2c(s1)CSc1ccccc1-2 [BL-1084] | 23.2 µM |  |  |
| C#CCCNC(=O)Nc1nc2c(s1)CSc1ccccc1-2 [BL-1085] | 12.2 µM | favorable activity |  |
| C#CCOC(=O)Nc1nc2c(s1)CSc1ccccc1-2 [BL-1088] | 14.3 µM | favorable activity |  |
| O=C(NCCS(=O)(=O)O)Nc1nc2c(s1)CSc1ccccc1-2 [BL-1122] | 3.26 µM | favorable activity | binding affinity of ligand for MSUT2 protein (MSUT2 [2]): tight binding affinity; ligand-protein binding mode (decrease in tagging density with competitor) (MSUT2 [3]): competitive |
| CC(=O)N1N=C(c2ccccc2)SC12CCSc1ccccc12 (stereo not drawn) [BL-1123] | 16 µM |  |  |
| CCS(=O)(=O)c1ccc(CNc2nc3c(s2)CSc2ccccc2-3)cc1 [BL-1126] | 13.4 µM |  |  |
| O=C(Nc1ccccc1)Nc1nc2c(s1)CSc1ccccc1-2 [BL-1131] | 32 µM |  |  |
| Cc1ccc(CNc2nc3c(s2)CSc2ccccc2-3)s1 [BL-1132] | 7.73 µM | widely tolerated |  |
| c1ccc(CNc2nc3c(s2)CSc2ccccc2-3)cc1 [BL-1133] | 7.6 µM | widely tolerated |  |
| C#CCCC1(CCNC(=O)Nc2nc3c(s2)CSc2ccccc2-3)N=N1 [BL-1138] |  |  | fluorescence tagging of MSUT2 protein (MSUT2 [3]; PAL probe clicked with TAMRA-biotin-azide): target engagement |

More lines, main results first:

| IC50 (MSUT2 [1]) | biological activity in the in vitro assay (SAR summary in words) (MSUT2 [1]) | Compound | other results |
| --- | --- | --- | --- |
| 109 µM | eliminates activity | CCS(=O)(=O)c1ccc(C(=O)Nc2nc3c(s2)CSCC3)cc1 |  |
| 60.9 µM |  | Nc1nc2c(s1)CSc1c(F)cc(F)cc1-2 [BL-1017] |  |
| 51.7 µM |  | CC1(C)Sc2ccccc2-c2nc(N)sc21 [BL-1124] |  |
| 49.5 µM |  | Nc1nc2c(s1)Cc1ccccc1-2 [BL-1125] |  |
| 45.1 µM |  | CCS(=O)(=O)c1ccc(C(=O)Nc2nc3c(s2)CCc2ccccc2-3)cc1 [BL-0963] |  |
| 23 µM |  | NCC(=O)Nc1nc2c(s1)CSc1ccccc1-2 [BL-1046] |  |
| 22.9 µM |  | Nc1nc2c(s1)CSc1ccc(F)cc1-2 [BL-0980] |  |
| 16.9 µM |  | Fc1ccc(CNc2nc3c(s2)CSc2ccccc2-3)cc1 [BL-1023] |  |
| 12.3 µM |  | COC(=O)CC[C@H](NC(=O)OC(C)(C)C)C(=O)Nc1nc2c(s1)CSc1ccccc1-2 [BL-1081] |  |
| 11.7 µM |  | C#Cc1ccc(CNc2nc3c(s2)CSc2ccccc2-3)cc1 [BL-1092] |  |
| 11 µM |  | Nc1nc2c(s1)CSc1ncccc1-2 [BL-1047] |  |
| 0.586 µM |  | C=C(Cc1nc2c(s1)CSc1ccccc1-2)c1ccc(S(=O)(=O)CC)cc1 [UWK-5] | IC50 [4]: 1.1 µM; ligand-protein binding mode (decrease in tagging density with competitor) (MSUT2 [3]): competitive |
